Article PMC8457330 (Journal of medicinal chemistry, 2021)

Assays:
SARS-CoV = conditions: read-out: SARS-CoV antiviral EC50; VeroE6 cells; cited from earlier work
SARS-CoV-2 = assay: Antiviral activity, quantitative VeroE6 cell-based assay with RNA-qPCR; conditions: VeroE6 cells, EC50 ratio versus compound 1
SARS-CoV 3CLpro = SARS-CoV 3CLpro (Severe acute respiratory syndrome coronavirus, UniProt P0C6X7); assay: biochemical
SARS-CoV-2 3CLpro = SARS-CoV-2 3CLpro (Severe acute respiratory syndrome coronavirus 2, UniProt P0DTD1); assay type: biochemical

Structure (SMILES) | fold reduction in antiviral activity compared to 1 (SARS-CoV-2) [fold] | IC50 (SARS-CoV 3CLpro) [nM] | also measured
O=C(Oc1cncc(Cl)c1)c1cccc2[nH]ccc12 [Compound 1, 5-chloropyridin-3-yl 1H-indole-4-carboxylate] |  |  | EC50 (SARS-CoV): 6900 nM
O=C(Oc1cncc(Cl)c1)c1cccc2c1CCN2 [Compound 2, 5-chloropyridin-3-yl indoline-4-carboxylate] | 5 | 190 | 
O=C(Oc1cncc(Cl)c1)c1ccc2[nH]ccc2c1 [Compound 7a, 5-chloropyridin-3-yl 1H-indole-5-carboxylate] |  | 405 | 
C=CCn1ccc2c(C(=O)Oc3cncc(Cl)c3)cccc21 [Compound 7d, 5-chloropyridin-3-yl 1-allyl-1H-indole-4-carboxylate] | ~5 |  | fold improvement in inhibitory potency over 1 (SARS-CoV-2 3CLpro; versus compound 1): over 5 fold
C=CCc1cn(CC=C)c2cccc(C(=O)Oc3cncc(Cl)c3)c12 [Compound 7e, 5-chloropyridin-3-yl 1,3-diallyl-1H-indole-4-carboxylate] |  |  | fold reduction in enzyme inhibitory activity (SARS-CoV-2 3CLpro; bis-allyl 7e versus 7d): 5 fold
